Measured values taken from patent US11528908B2, “Acaricide and application thereof” (priority 2018, dated 2022).

Key:
[1] = system: adult citrus red mites (Panonychus citri Mcgregor); experiment: Glass slide method, mortality of adult mites (Table 7); type: in vivo
Method: By using the glass slide method, the effects of the 1500-fold diluted solution and the 3000-fold diluted solution of the acaricide prepared in embodiment 3, the 1500-fold diluted solution of the ethoxy-modified trisiloxane, and the 1500-fold diluted solution of the solid sodium dioctyl sulfosuccinate prepared in embodiment 1 on the adult citrus red mites (Panonychus citri Mcgregor) were tested. Each treatment group had 50 citrus red mites, and the measurement was repeated 4 times, with water as a control.

mites = experiment: Acaricidal effect of ethoxy-modified trisiloxane alone (statement in summary); conditions: content 0.667 g/L to 1.0 g/L

Compound: CCCCCCCCOC(=O)CC(C(=O)OCCCCCCCC)S(=O)(=O)O.[Na] (stereo not drawn) [sodium dioctyl sulfosuccinate]
- Mortality after 10 minutes ([1]; in vivo): 20.35cC %
- Mortality after 72 hours ([1]; in vivo): 62.45cC %

Compound: ethoxy-modified trisiloxane
- Mortality after 10 minutes ([1]; 1500× dilution, 10 minutes after spraying): 15.42dD %
- Mortality after 72 hours ([1]; 1500× dilution, 72 hours after spraying): 28.84dD %
- damage to plants (mites): serious pesticide damage
- acaricidal rate for 72 hours (mites; high concentration): about 30%
